Like-named read-outs stand apart in the source and are kept apart here.
Experiments:
[1] = tested on: locomotor activity in mice; assay: Locomotor stimulant activity in mice; assay type: in vivo; conditions: for Time course of locomotor stimulant effect after injection: 30-min period at the start of each of four hours after administration
DAT = DAT (Rattus norvegicus, UniProt P23977); assay: DAT binding in rat brain membranes
SERT = SERT (Rattus norvegicus, UniProt P31652); assay: SERT binding in rat brain membranes; conditions: SERT versus DAT and NET binding
Chain of SERT (P31652 whole entry): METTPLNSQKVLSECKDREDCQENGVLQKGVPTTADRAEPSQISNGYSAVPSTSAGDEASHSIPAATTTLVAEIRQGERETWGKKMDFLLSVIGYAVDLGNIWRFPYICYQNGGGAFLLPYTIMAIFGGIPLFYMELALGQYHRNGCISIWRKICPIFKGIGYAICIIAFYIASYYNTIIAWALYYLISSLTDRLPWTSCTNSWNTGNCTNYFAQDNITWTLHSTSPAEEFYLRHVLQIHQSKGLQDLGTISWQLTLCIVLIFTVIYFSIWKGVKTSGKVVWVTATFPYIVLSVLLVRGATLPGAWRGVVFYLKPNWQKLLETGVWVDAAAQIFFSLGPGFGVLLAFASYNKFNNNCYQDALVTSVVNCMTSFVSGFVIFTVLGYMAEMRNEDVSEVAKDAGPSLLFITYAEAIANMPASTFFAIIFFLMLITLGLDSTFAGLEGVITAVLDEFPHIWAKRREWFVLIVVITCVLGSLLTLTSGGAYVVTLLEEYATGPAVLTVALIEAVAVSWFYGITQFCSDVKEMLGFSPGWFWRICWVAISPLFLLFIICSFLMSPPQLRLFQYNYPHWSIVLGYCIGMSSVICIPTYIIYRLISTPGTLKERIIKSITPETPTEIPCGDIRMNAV

Chain of DAT (P23977 whole entry): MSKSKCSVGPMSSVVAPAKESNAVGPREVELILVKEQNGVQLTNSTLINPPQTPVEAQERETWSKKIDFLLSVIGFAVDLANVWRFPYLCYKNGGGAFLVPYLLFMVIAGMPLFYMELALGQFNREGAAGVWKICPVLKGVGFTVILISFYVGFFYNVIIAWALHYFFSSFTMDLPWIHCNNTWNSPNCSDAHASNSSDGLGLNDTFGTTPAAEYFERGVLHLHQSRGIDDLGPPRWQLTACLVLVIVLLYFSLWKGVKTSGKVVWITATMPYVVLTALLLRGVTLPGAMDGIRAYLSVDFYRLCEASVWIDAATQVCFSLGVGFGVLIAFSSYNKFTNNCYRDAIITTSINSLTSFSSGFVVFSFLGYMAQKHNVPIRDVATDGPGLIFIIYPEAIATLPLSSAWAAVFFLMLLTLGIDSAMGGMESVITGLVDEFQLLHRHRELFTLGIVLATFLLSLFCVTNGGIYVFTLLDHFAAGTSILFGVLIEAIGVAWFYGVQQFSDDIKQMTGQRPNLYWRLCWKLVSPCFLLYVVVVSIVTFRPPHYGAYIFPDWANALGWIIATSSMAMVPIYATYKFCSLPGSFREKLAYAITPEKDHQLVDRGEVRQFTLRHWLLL

NC(=O)C[S+]([O-])C(c1ccccc1)c1ccccc1 (racemic) [(±)-1, 2-[(diphenylmethyl)sulfinyl]acetamide]
Time course of locomotor stimulant effect after injection [1]: evident up to four hours after injection

[O-][S+](CCNCCCc1ccccc1)C(c1ccccc1)c1ccccc1 (stereo not shown) [9a]
DAT binding affinity, comparison in words (DAT): most potent DAT analogue in the series

CN(C)CC[S+]([O-])C(c1ccc(Cl)cc1)c1ccc(Cl)cc1 (stereo not shown) [9d]
Transporter selectivity in words (SERT): SERT-selective

NC(=O)C[S@+]([O-])C(c1ccccc1)c1ccccc1 [(+)-1]
Time course of locomotor stimulant effect after injection [1]: evident up to four hours after injection

NC(=O)C[S@@+]([O-])C(c1ccccc1)c1ccccc1 [(−)-1]
Time course of locomotor stimulant effect after injection [1]: evident up to four hours after injection
DAT binding affinity, comparison in words (DAT; rat brain membranes, within the series): slightly higher affinity than the S

COC(=O)[C@H]1[C@@H](OC(=O)c2ccccc2)C[C@@H]2CC[C@H]1N2C [cocaine]
Effect on locomotor activity (horizontal activity counts) ([1]; after injection, 6 mice per point, maximal effect compared with cocaine): greatest among the drugs
